Assay results as given in article PMC10047800, “Evaluation of Some Benzo[g]Quinazoline Derivatives as Antiviral Agents against Human Rotavirus Wa Strain: Biological Screening and Docking Study” (Current Issues in Molecular Biology, 2023).

Experiments:
Assay type in all cases: cell-based
Hep-2 cells = test: Cytotoxicity test (cell morphology, trypan blue viability): non-toxic dose on Hep-2 cells; settings: Hep-2 cell line, 72 h
Protocol: (§1) It was carried out in accordance with the methods that were reported. In 1 mL of ethyl alcohol, 100 mg of sample was dissolved. A sample of 24 μL of 100× antibiotic–antimycotic mixture was added to 1 mL of sample to decontaminate it. Then, bi-fold dilutions were done to 100 μL of the original dissolved sample, and 100 μL of each dilution was inoculated in Hep-2, BGM, MA104, and CaCo-2 cell lines (obtained from the Holding Company for Biological Products & Vaccines VACSERA, Giza, Egypt) previously cultured in 96 multi well plates (Greiner-Bio one, Frickenhausen, Germany) to estimate the sample’s non-toxic dose. Inverted light microscope cell morphology and trypan blue dye exclusion cell viability tests were used for cytotoxicity assay.
(§2) The Hep-2, BGM, MA104, and CaCo-2 cell cultures were each seeded at a concentration of 2 × 10^5 cells/mL and grown individually in 96-well tissue culture plates (Greiner-Bio one, Frickenhausen, Germany). After an incubation period of 24 h at 37 °C in an atmosphere containing 5% (v/v) CO2, cell monolayers were confluent. At this point, the media was withdrawn from each well and replaced with 100 μL of bi-fold dilutions of the sample examined that were prepared in Dulbecco’s Modified Eagle Medium (DMEM) (GIBCO BRL, Darmstadt, Germany). For the purpose of cell controls, 100 μL of DMEM containing no samples was added. All the cultures were kept in an atmosphere with 5% (v/v) CO2 that was humidified and incubated at 37 °C for a total of 72 h. […] Morphology shifts were observed and scored.
(§3) Trypan blue dye was excluded from the experiment. […]. In 12-well tissue culture plates, Hep-2, BGM, MA104, and CaCo-2 cells (2 × 10^5 cells/mL) were cultivated (Greiner-Bio one, Frickenhausen, Germany). Following an incubation period of 24 h, 100 μL of tested sample dilutions, also known as bi-fold dilutions, were added to each well, and the results were examined in the same manner as described previously. After 72 h, the medium was removed, the cells were trypsinized, and an equal amount of an aqueous solution containing 0.4% (w/v) trypan blue dye was added. Counting the number of viable cells required phase contrast microscopes.

BGM cells = test: Cytotoxicity test (cell morphology, trypan blue viability): non-toxic dose on BGM cells; settings: BGM cell line, 72 h
Protocol: as §1, §2, §3

MA104 cells = test: Cytotoxicity test (cell morphology, trypan blue viability): non-toxic dose on MA104 cells; settings: MA104 cell line, 72 h
Protocol: as §1, §2, §3

[1] = system: human rotavirus Wa strain; test: Rotavirus titers by plaque assay after treatment with non-toxic doses; settings: virus 1 × 10^7 PFU/mL, Mean ± SD of three results
Protocol: The Rotavirus Wa strain, at a concentration of 1 × 10^7 PFU/mL, was mixed with non-toxic dilutions in a volume of 100 μL. At a temperature of 37 °C and 10 μg/mL of trypsin, the rotavirus stocks became infectious after 30 min. The mixture was incubated for half an hour at 37 °C. The Hep 2, BGM, and MA104 cell lines were seeded into the wells of 12 multi-well plates and then injected with 100 μL (10-fold) dilutions of the treated and untreated rotavirus Wa strain after an hour of adsorption at 37 °C in an atmosphere containing 5% CO2-water vapor without shaking. The plates were bounced at regular intervals to prevent the cells from drying out. Following the adsorption step, 1 mL of a 2× media consisting of Dulbecco’s Modified Eagle Medium, Gibco-BRL (DMEM), and 1% agarose were added to each well. The mixture of medium and agarose was given an additional 0.5 μg/mL of trypsin so that it could test for the rotavirus Wa strain. The plates were kept in an incubator with an environment containing 5% CO2 and water vapor at 37 °C. After being fixed with formalin and stained with crystal violet at a concentration of 0.4%, the plaques were counted. After that, the PFU/mL viral titers were determined.

SMILES	Non-Toxic Doses (Hep-2 cells) [µg/mL]	Non-Toxic Doses (BGM cells) [µg/mL]	Non-Toxic Doses (MA104 cells) [µg/mL]	% Reduction of Rotavirus Wa strain [1]
Cn1c(=S)[nH]c2cc3ccccc3cc2c1=O [Compound 1]	65	60	65	
CCn1c(=S)[nH]c2cc3ccccc3cc2c1=O [Compound 2]	60	60	60	
O=c1c2cc3ccccc3cc2[nH]c(=S)n1Cc1ccccc1 [Compound 3]	70	60	75	
COc1cccc(CSc2nc3cc4ccccc4cc3c(=O)n2C)c1 [Compound 4]	55	50	55	
CCn1c(SCc2cccc(OC)c2)nc2cc3ccccc3cc2c1=O [Compound 5]	60	55	55	
COc1cccc(CSc2nc3cc4ccccc4cc3c(=O)n2Cc2ccccc2)c1 [Compound 6]	65	65	65	20% ± 4%
CCn1c(SCc2ccc(Cl)cc2)nc2cc3ccccc3cc2c1=O [Compound 7]	60	60	60	
O=c1c2cc3ccccc3cc2nc(SCc2ccc(Cl)cc2)n1Cc1ccccc1 [Compound 8]	50	50	50	
Cn1c(SCc2cccc(C#N)c2)nc2cc3ccccc3cc2c1=O [Compound 9]	70	65	75	
CCn1c(SCc2ccc(C#N)cc2)nc2cc3ccccc3cc2c1=O [Compound 10]	50	50	55	
N#Cc1ccc(CSc2nc3cc4ccccc4cc3c(=O)n2Cc2ccccc2)cc1 [Compound 11]	65	65	65	
CCn1c(SCCCN2C(=O)c3ccccc3C2=O)nc2cc3ccccc3cc2c1=O [Compound 12]	30	25	30	
O=C1c2ccccc2C(=O)N1CCCSc1nc2cc3ccccc3cc2c(=O)n1Cc1ccccc1 [Compound 13]	45	40	50	20% ± 3%
Cn1c(NN)nc2cc3ccccc3cc2c1=O [Compound 14]	60	55	60	
CCn1c(NN)nc2cc3ccccc3cc2c1=O [Compound 15]	55	55	55	
NNc1nc2cc3ccccc3cc2c(=O)n1Cc1ccccc1 [Compound 16]	65	60	60	
